Experimental data published in ChEMBL document CHEMBL1201862, “PubChem BioAssay data set” (2004).
The source made the active and inactive calls.

Assays:
[1] = control 3'UTR Renilla luciferase suppression, dose response, counter-screen for Shn3 inhibitor project, cell-based, Clone20-Shn3RL, cherry-picked (AID 624133); format: functional
[2] = target: T1, Ubiquitin-conjugating enzyme E2 N (Homo sapiens, UniProt P61088); format: functional;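 note: Dose-response confirmation in a TR-FRET assay detecting UBC13-driven polyubiquitin chain formation, inhibition measured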
T1 sequence (P61088 whole entry): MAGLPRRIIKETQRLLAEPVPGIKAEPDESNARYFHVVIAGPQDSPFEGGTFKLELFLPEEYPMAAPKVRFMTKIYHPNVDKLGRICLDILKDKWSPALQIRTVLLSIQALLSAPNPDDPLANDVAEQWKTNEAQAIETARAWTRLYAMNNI

BJ [3] = assay: cells; format: functional, cell-based; details: Homo sapiens
[4] = cytotoxicity toward DRD oncogenic fibroblasts, dose response, cell-based, non-viral oncogenic, luminescence (AID 1934); format: functional; details: Homo sapiens
[5] = HepG2 cell cytotoxicity, dose response, cytotoxicity control for Shn3 inhibitor project, CellTiter-Glo, cherry-picked (AID 624134); format: functional, cell-based
[6] = Shn3 3'UTR reporter inhibitors, dose response, cell-based, Clone20 osteoblasts, firefly luciferase, cherry-picked (AID 624132); format: functional;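 note: firefly luciferase luminescence from reporter carrying the Shn3 3'UTR in osteoblasts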
BJ [7] = assay: cytotoxicity toward BJ-TERT fibroblasts, dose response, cell-based, RAS-independent, luminescence (AID 1933); format: functional; details: Homo sapiens
BJ [8] = assay: cytotoxicity toward BJ-TERT-LT-ST fibroblasts, dose response, cell-based, RAS-independent, luminescence (AID 1935); format: functional; details: Homo sapiens;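 note: BJ fibroblasts immortalized with TERT plus LT and ST oncogenes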
[9] = Luminescence Cell-Based Dose Retest to Confirm Inhibitors of Cancer Stem Cells. [Related pubchem assays (depositor defined):AID2717, AID2721]; format: functional; details: Homo sapiens
[10] = HEp-2 cell cytotoxicity, dose response, cytotoxicity control for RSV inhibitor project, HTS (AID 2410); format: functional; details: human respiratory syncytial virus
Genome polyprotein = Genome polyprotein (dengue virus type 2, UniProt P29990); assay: Dengue-2 NS5 methyltransferase inhibitors, primary screen, biochemical, confirmation dose response (AID 588689); format: functional
Genome polyprotein, sequence (P29990 2492-3391 limits assumed): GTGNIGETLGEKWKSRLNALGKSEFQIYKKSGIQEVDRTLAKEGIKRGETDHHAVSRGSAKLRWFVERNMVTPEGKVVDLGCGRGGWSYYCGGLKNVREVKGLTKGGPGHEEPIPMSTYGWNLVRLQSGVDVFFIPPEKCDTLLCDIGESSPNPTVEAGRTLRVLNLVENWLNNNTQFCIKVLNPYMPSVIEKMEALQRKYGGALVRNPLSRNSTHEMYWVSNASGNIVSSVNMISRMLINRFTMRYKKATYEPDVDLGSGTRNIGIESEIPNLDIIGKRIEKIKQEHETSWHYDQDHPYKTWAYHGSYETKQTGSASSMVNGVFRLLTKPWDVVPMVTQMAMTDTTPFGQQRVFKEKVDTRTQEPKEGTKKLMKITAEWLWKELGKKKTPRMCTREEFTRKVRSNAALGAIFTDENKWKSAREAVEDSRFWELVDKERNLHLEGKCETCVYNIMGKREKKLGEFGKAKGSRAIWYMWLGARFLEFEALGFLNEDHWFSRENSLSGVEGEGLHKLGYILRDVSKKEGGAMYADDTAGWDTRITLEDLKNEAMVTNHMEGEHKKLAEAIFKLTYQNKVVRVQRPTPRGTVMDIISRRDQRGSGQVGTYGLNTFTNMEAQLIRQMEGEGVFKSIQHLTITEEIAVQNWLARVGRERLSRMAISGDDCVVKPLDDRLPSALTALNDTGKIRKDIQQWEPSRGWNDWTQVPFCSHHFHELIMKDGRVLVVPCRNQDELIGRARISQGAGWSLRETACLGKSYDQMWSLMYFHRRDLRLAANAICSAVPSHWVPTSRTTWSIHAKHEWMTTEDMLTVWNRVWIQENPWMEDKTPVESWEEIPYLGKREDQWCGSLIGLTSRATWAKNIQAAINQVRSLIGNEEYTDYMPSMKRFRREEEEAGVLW

[11] = growth suppression of PTEN-null colon cells, dose response, cell-based, HCT116 PTEN knockout (AID 1047); format: functional;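 note: HCT116 colon tumor cells with PTEN knocked out; cells exposed to compound for 60 hours before readout; potency for loss of cell viability measured by luminescence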
[12] = growth suppression of beta-catenin-knockout colon cells, dose response, cell-based, HCT116, human colon tumor (AID 1045); format: functional;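 note: HCT116 colon tumor cells with beta catenin knocked out; cells exposed to compound for 60 hours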
[13] = P. falciparum Dd2 growth inhibitors, dose response, SYBR Green, cherry-picked samples (AID 1159567); format: functional, cell-based
[14] = target: Luciferin 4-monooxygenase (Photinus pyralis, UniProt P08659); assay: firefly luciferase enzyme inhibitors, dose response, biochemical, luminescence (AID 1891)
Luciferin 4-monooxygenase, sequence (P08659 whole entry): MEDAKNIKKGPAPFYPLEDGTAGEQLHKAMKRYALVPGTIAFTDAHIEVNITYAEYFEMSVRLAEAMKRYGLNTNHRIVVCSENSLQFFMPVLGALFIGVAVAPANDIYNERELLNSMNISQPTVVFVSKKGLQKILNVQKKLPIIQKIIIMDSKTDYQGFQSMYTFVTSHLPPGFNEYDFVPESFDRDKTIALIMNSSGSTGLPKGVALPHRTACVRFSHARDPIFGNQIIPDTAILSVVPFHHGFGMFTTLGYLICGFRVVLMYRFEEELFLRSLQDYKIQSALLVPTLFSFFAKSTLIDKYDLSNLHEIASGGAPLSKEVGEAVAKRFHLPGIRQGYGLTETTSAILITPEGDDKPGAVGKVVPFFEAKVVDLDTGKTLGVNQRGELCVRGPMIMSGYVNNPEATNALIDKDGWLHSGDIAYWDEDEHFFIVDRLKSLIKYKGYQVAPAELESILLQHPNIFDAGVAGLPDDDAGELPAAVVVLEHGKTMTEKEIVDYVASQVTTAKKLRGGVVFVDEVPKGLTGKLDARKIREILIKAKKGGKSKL

[15] = Luminescence Cell-Based Dose Confirmation HTS to Identify Inhibitors of Platelet Dense Granule Release. [Related pubchem assays: 1663 (Primary HTS), 1678 (Summary of Project)]; format: functional
[16] = inhibitors of firefly luciferase expression or activity, dose response, H4 neuroglioma cells, luminescence (AID 1990); format: functional, cell-based
[17] = Luminescence Cell-Based Dose Response HTS to Identify Inhibitors of 5'UTR Stem-Loop Driven Prion Protein mRNA Translation in H4 Neuroglioblastoma Cells. [Related pubchem assays: 1827 (Project Summary), 1813 (Primary HTS)]; format: functional
[18] = target: FAD-linked sulfhydryl oxidase ALR (Homo sapiens, UniProt P55789); assay: inhibitors of human ALR sulfhydryl oxidase, dose response, biochemical, H2O2 detection, luminescence, cherry-pick (AID 493248)
FAD-linked sulfhydryl oxidase ALR, sequence (P55789 whole entry, the tested form may be a part): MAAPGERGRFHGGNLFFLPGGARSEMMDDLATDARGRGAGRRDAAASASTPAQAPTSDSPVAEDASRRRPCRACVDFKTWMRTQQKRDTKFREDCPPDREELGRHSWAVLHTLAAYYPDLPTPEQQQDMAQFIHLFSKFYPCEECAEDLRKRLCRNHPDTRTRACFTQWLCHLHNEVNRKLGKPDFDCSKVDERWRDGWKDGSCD

[19] = target: T2, RNA-binding protein pos-1 (Caenorhabditis elegans, UniProt G5EF15); assay: inhibitors of POS-1/mex-3 RNA binding, dose response, biochemical, fluorescence polarization (AID 1964);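 note: purified POS-1 fused to maltose binding protein made in E. coli; potency of compounds blocking POS-1 binding to fluorescent RNA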
T2 sequence (G5EF15 whole entry): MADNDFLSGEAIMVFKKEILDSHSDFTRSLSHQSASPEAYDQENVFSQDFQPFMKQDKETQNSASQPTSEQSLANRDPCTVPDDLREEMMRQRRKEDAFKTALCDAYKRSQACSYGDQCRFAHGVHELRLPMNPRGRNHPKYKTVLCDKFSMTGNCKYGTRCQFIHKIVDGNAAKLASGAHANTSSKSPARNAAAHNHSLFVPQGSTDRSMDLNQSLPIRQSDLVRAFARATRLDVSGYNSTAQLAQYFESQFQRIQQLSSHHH

[20] = target: T3, Zinc finger protein mex-5 (Caenorhabditis elegans, UniProt Q9XUB2); assay: MEX-5/TCR-2 RNA interaction inhibitors, dose response, biochemical, C. elegans, fluorescence polarization (AID 1960)
T3 sequence (Q9XUB2 whole entry): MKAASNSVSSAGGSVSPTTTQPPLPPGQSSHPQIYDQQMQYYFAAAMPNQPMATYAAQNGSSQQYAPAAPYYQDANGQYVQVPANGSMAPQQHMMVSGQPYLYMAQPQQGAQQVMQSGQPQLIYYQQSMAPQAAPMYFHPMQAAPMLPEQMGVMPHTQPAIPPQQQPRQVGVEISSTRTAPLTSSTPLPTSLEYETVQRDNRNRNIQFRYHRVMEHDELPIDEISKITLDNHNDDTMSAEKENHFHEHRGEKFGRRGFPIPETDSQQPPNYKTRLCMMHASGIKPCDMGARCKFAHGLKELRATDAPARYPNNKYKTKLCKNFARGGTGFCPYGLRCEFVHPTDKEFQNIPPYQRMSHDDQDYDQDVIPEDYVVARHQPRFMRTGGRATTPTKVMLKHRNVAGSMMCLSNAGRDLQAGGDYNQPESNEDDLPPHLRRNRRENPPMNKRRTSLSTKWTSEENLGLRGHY

[21] = target: T4, Corticotropin-releasing factor receptor 2/Corticotropin-releasing factor-binding protein (Homo sapiens, UniProt P24387+Q13324); assay: activators of CRF receptor 2 with binding protein – uHTS hits, confirmation (AID 602473); format: functional; details: read-out: EC50_Mean
T4 sequence (Q13324 whole entry): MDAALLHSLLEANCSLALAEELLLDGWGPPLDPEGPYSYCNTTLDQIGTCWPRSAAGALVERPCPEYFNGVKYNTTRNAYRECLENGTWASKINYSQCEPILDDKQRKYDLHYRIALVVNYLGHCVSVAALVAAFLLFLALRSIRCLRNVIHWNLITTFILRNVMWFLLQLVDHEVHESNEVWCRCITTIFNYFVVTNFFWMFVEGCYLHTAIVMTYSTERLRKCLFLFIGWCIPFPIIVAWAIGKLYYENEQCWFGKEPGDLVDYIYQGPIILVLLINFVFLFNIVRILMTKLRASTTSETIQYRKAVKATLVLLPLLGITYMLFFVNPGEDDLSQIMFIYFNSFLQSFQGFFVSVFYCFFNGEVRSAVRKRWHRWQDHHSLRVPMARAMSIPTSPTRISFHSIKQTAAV
T4 sequence (P24387 whole entry): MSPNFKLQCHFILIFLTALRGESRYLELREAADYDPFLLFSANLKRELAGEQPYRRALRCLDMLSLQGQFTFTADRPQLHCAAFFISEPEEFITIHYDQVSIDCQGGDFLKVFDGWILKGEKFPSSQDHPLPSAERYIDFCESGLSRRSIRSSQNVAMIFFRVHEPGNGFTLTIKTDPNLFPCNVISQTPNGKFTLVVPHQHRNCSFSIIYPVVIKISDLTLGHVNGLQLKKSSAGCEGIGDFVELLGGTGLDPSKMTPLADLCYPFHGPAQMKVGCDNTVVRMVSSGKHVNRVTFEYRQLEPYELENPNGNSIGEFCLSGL

[22] = target: T4, Corticotropin-releasing factor receptor 2/Corticotropin-releasing factor-binding protein; assay: Dose Response confirmation of uHTS hits for small molecule antagonists of the CRF-binding protein and CRF-R2 receptor complex.; format: functional; details: read-out: IC50_Mean
Cytochrome P450 1A2 = target: T5, Cytochrome P450 1A2 (Homo sapiens, UniProt P05177);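 note: PubChem cytochrome P450 panel assay, CYP1A2 panel member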
T5 sequence (P05177 whole entry): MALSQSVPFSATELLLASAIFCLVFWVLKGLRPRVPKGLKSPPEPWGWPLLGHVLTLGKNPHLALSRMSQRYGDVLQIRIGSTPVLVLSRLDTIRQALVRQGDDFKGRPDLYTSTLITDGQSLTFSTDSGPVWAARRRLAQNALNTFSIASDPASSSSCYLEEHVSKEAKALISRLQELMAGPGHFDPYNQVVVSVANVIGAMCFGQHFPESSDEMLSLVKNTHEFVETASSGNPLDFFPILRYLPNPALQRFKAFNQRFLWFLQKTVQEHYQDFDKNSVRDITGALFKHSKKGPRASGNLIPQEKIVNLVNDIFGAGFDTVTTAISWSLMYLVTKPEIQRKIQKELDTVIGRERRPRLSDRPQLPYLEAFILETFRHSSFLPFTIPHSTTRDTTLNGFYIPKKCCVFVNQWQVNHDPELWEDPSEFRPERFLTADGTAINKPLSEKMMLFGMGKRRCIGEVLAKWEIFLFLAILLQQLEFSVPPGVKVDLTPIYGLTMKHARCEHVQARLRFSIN

Cytochrome P450 3A4 = Cytochrome P450 3A4 (Homo sapiens, UniProt P08684);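 note: CYP3A4 tested as one member of a cytochrome P450 panel screen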
Cytochrome P450 3A4, sequence (P08684 whole entry): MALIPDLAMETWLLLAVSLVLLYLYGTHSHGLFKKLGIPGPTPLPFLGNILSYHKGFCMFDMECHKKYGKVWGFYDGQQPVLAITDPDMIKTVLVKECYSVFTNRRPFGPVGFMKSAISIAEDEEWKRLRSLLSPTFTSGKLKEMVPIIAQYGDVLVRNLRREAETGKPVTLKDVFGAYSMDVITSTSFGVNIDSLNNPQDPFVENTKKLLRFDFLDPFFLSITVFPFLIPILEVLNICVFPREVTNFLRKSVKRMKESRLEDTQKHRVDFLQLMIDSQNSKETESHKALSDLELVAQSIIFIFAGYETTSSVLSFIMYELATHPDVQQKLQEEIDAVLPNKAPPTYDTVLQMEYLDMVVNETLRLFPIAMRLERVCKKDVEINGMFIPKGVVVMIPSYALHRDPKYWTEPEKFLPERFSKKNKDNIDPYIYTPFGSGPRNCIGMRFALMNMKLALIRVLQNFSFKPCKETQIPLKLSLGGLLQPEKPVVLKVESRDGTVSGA

COc1ccc(-c2noc(CCC(=O)NCCCN3CCC(Cc4ccccc4)CC3)n2)cc1
AC50 [1]: 20.7 µM (active)
IC50 [2]: > 20 µM (inactive)
EC50 (BJ [3]): > 150 µM (not active)
EC50 [4]: 18.5 µM (active)
AC50 [5]: 30.4 µM (active)
AC50 [6]: 4.03 µM (active)
EC50 (BJ [7]): 23.2 µM (active)
EC50 (BJ [8]): > 150 µM (not active)

CCc1ccc([C@@H]2CC=C(C(=O)O)[C@H](c3ccc(Cl)cc3)N2S(=O)(=O)c2ccc(C)cc2)cc1
AC50 [9]: 7.7 µM (active)
CC50 [10]: 11.6 µM (active)
IC50 (Genome polyprotein): 40.3 µM (active)

COC(=O)CC1=NN(c2ccccc2)C(=O)/C1=C\c1ccc(OC)cc1
IC50 (Genome polyprotein): 33.3 µM (active)

CCOc1cc(/C=C2\C(=O)ON=C2c2ccccc2)ccc1OC
IC50 (Genome polyprotein): 27.1 µM (active)

CC(C)(C)S(=O)(=O)c1cnc2c(-c3ccc(Cl)cc3)cnn2c1N
EC50 [11]: 10.3 µM (active)
EC50 [12]: 11.8 µM (active)

COc1ccccc1S(=O)(=O)N1[C@@H]2CNC[C@H]1[C@H]2c1ccc(-c2ccccc2C)cc1
AC50 [13]: 27.7 µM (active)

CCOC(=O)N1CCN(C(=O)CNC2CCCCCCC2)CC1
EC50 [14]: > 112 µM (not active)
EC50 [15]: 16.7 µM (active)

O=C(NC1CCCCC1)N(C1=NCCCCC1)c1ccc(Br)cc1
EC50 [14]: > 112 µM (not active)
EC50 [15]: > 112 µM (not active)

COc1ccc(-n2c(SC(C)C(=O)Nc3ncc(Cl)cc3Cl)nc3ccccc32)cc1 (stereo unspecified)
EC50 [16]: 12.6 µM (active)
EC50 [17]: 38.4 µM (active)
EC50 (BJ [3]): 22.3 µM (active)
EC50 [4]: 89.7 µM (active)
EC50 (BJ [7]): 29.8 µM (active)
EC50 (BJ [8]): > 150 µM (not active)

COc1cc(/C=N/NC(=O)c2cccc(S(=O)(=O)N3CCCC3)c2)cc(OC)c1O
AC50 [18]: 0.039 µM (active)

COCCCNC(=O)c1cc2c(=O)n(C)c3ccccc3c2n1C
EC50 [11]: 14.4 µM (active)
EC50 [12]: 15.4 µM (active)

O=C(NCC1CCCO1)c1cccc(NC(=O)c2ccc(Br)cc2)c1 (stereo unspecified)
EC50 [14]: > 112 µM (not active)
EC50 [15]: > 112 µM (not active)

CSC1=C(C#N)C(=O)NC(c2ccccc2O)S1 (stereo unspecified)
IC50 (Genome polyprotein): 45.2 µM (active)

COc1ccc(CCN2C(=O)c3ccccc3NC2c2cc(Cl)c(O)c(OC)c2)cc1 (stereo unspecified)
EC50 (BJ [3]): > 150 µM (inconclusive)
EC50 [4]: 12.9 µM (active)
EC50 (BJ [7]): 11.3 µM (inconclusive)
EC50 (BJ [8]): 25.7 µM (inconclusive)

CC1(C)CC(=O)C2=C(C1)OC(/N=C/N1CCCC1)=C(C#N)C2c1ccccc1 (stereo unspecified)
EC50 [19]: > 300 µM (not active)
EC50 [20]: > 300 µM (not active)
EC50 [21]: > 53 µM (inactive)
IC50 [22]: > 47.1 µM (inactive)

CCC(=O)N1CCN=C1SCc1cccc(C(F)(F)F)c1
AC50 [18]: 4.38 µM (active)

CCOC(=O)C1=C(O)/C(=C/c2cc(OC)c(OC)c(OC)c2)N=C1C
EC50 [14]: > 112 µM (not active)
AC50 (Cytochrome P450 1A2): 14.1 µM (inconclusive)
EC50 [15]: > 112 µM (not active)
AC50 (Cytochrome P450 3A4): 17.8 µM (inconclusive)

Cc1cc(C(=O)N/N=C/c2ccc3c(c2)OCO3)c2ccccc2n1
EC50 (BJ [3]): 33.6 µM (active)
EC50 [4]: 22.7 µM (active)
EC50 (BJ [7]): 12.7 µM (active)
EC50 (BJ [8]): 20.9 µM (active)

C[C@H](NC1=NS(=O)(=O)c2ccccc21)C(=O)OCc1cc([N+](=O)[O-])cc2c1OCOC2
EC50 [14]: > 112 µM (not active)
EC50 [15]: > 112 µM (not active)

CC1CCCCC1NC(=O)c1ccc(S(=O)(=O)NNC(=O)c2ccncc2)cc1 (stereo unspecified)
AC50 [18]: 2.99 µM (active)

CN(C)c1ccc(NC(=O)CCn2c(=S)oc3ccccc32)cc1
AC50 [18]: 14.6 µM (active)

Cc1ccc(CN2CCN(/N=C/c3ccc(O)c(O)c3)CC2)cc1
AC50 [18]: 3.11 µM (active)

CCC(C)NC(=O)c1cc(-c2ccccc2O)on1 (stereo unspecified)
EC50 [14]: > 112 µM (not active)
EC50 [15]: > 112 µM (not active)

COc1cc(/C=N/N2C(C)CCCC2C)cc(OC)c1O (stereo unspecified)
AC50 [18]: 1.1 µM (active)

Cc1cccc(C(=O)O/N=C(\N)c2ccccn2)c1
EC50 [14]: 7.75 µM (active)
EC50 [15]: 20.4 µM (active)

O=C(O)c1ccccc1NS(=O)(=O)c1cccc(NS(=O)(=O)c2cc(Br)ccc2Br)c1
IC50 (Genome polyprotein): 28.3 µM (active)

CCc1nnc2n1N=C(c1ccc([N+](=O)[O-])cc1)CS2
AC50 [18]: 6.01 µM (active)
